Assay results from US20080214622A1, “Substituted Triazole Derivatives As Oxytocin Antagonists” (priority 2005, published 2008).

biological target: T1, Oxytocin Receptor (Homo sapiens, UniProt P30559); experiment: Oxytocin Receptor Beta-lactamase assay (as detailed in WO 2004/020414); assay type: cell-based; conditions: read-out: Ki value (Oxytocin antagonist activity)
T1 sequence (P30559 1-389): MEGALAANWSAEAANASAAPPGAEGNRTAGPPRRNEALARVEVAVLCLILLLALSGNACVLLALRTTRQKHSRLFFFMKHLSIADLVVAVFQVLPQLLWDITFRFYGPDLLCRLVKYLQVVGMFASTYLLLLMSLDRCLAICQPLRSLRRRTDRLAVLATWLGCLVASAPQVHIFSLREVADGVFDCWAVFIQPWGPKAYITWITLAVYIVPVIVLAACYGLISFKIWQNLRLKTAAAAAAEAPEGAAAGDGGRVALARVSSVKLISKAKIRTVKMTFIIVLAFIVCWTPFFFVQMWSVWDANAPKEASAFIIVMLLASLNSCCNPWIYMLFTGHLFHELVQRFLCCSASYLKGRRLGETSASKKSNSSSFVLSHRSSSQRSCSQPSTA
Source text: A suitable assay for determining the Oxytocin antagonist activity of a compound is detailed in International Patent Application WO 2004/020414.

| Ki | SMILES |
| --- | --- |
| 11.2 nM | COc1ccc(-n2c(C)nnc2-c2ccc(-c3ccccc3OC)cc2)c(OCCN2CCOCC2)n1 [Example 2, 4-[2-({6-Methoxy-3-[3-(2′-methoxybiphenyl-4-yl)-5-methyl-4H-1,2,4-triazol-4-yl]pyridin-2-yl}oxy)ethyl]morpholine] |
| 11.7 nM | COc1ccc(-n2c(Cn3nccn3)nnc2-c2ccc(-c3ccccc3OC)cc2)cc1 [Example 25] |
| 14.6 nM | COc1ccc(-n2c(C)nnc2-c2ccc(-c3ccccc3OC)cc2OC)cc1 [Example 10, 3-(2′,3-Dimethoxybiphenyl-4-yl)-4-(4-methoxyphenyl)-5-methyl-4H-1,2,4-triazole] |
| 13.8 nM | COCCOc1nc(OC)ccc1-n1c(C)nnc1-c1ccc(-c2ccccc2OC)cc1 [Example 32, 6-Methoxy-3-[3-(2′-methoxybiphenyl-4-yl)-5-methyl-4H-1,2,4-triazol-4-yl]-2-(2-methoxyethoxy)pyridine] |
